According to patent EP3046573B1, “AMYLIN ANALOGUES” (Zealand Pharma A/S, priority 2013, dated 2015):
Numbered stars: 1 amine (or outer) side, 2 acyl side, 3 side chain; on linkers, the order of the positions; unused ones are H or OH. Bridge positions count the residues as written; N and C are the ends. Square brackets hold non-standard residues; d marks the D form. Peptide text beside a SMILES is read from it. * marks the point of attachment. C20 diacid = O=C(O)CCCCCCCCCCCCCCCCCCC(=O)*; γGlu = O=C(O)[C@H](CCC(=O)[*:2])N[*:1]; NMeI = CC[C@H](C)[C@H](NC)C(=O)O; Sar = CNCC(=O)O

Key:
[1] = Assessment of physical stability: fibril formation detected with Thioflavin T (ThT), lag-time; type: physicochemical; settings: 1 mg/ml peptide, 40 µM ThT, FND = Fibrillation not detected; for Fibrillation lag time (hours) pH 4.0 (Ac): 50 mM acetate buffer pH 4.0, 96 hours at 40°C; for Fibrillation lag time (hours) pH 7.0 (Ph): 50 mM phosphate buffer pH 7.0, 96 hours at 40°C
Description: Solutions containing (i) 1 mg/ml of test peptide, 40 µM ThT and 50 mM phosphate (Ph) buffer (pH 7.0), (ii) 1 mg/ml of test peptide, 40 µM ThT and 50 mM histidine (His) buffer (pH 7.0), and (iii) 1 mg/ml of test peptide, 40 µM ThT and 50 mM acetate (Ac) buffer (pH 4.0), were loaded in a 96-well black fluorescence plate (clear bottom) in triplicate. Data were collected at fixed intervals of 10 min, each preceded by 300 s of automixing (agitation), over a period of 96 hours at 40° C. Physical stability, expressed as lag-time of fibril formation (in hours), was defined as the intersection between two linear regressions representing the initial stable phase and the growth phase.

[2] = molecular target: T1, human calcitonin receptor (hCTR2) (Homo sapiens, UniProt P30988); test: hCTR2 assay: induction of cAMP (AlphaScreen cAMP Assay kit) in COS7 cells expressing hCTR2; type: cell-based
T1 construct: expressed in transfected cells
T1 sequence (P30988 25-474): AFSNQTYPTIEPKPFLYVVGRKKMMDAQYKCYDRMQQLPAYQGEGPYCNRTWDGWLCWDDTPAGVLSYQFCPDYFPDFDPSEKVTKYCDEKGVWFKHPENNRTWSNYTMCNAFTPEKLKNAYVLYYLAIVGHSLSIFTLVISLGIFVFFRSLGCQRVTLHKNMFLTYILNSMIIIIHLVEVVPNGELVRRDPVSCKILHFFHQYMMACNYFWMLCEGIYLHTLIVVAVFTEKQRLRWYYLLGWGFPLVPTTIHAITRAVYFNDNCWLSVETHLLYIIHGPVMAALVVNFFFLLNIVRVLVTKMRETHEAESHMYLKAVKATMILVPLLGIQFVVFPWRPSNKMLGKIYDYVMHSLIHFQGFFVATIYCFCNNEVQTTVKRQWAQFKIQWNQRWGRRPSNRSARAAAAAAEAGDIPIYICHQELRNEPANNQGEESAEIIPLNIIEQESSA
Summary of the method: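 Stable RAMP-naive COS7 clone expressing hCTR2 was stimulated with increasing peptide concentrations in Tyrode buffer (pH 7.4) with 100 µM IBMX and 0.1% casein for 15 min at 37° C. Cells were lysed and cAMP measured by AlphaScreen. EC50 and efficacy relative to pramlintide came from 4PL curve fits.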

[3] = Solubility assessment (turbidity absorbance at 325 nm); type: physicochemical; settings: stock 2 mg/ml diluted 1:1, ambient temperature (typically 25°C), n=1; for Solubility, Acetate buffer pH 4: 100 mM acetate buffer pH 4.0; for Solubility, Acetate buffer pH 5: 100 mM acetate buffer pH 5.0; for Solubility, Histidine buffer pH 6: 100 mM histidine buffer pH 6.0; for Solubility, Histidine buffer pH 7: 100 mM histidine buffer pH 7.0; for Solubility, Phosphate buffer pH 6: 100 mM phosphate buffer pH 6.0; for Solubility, Phosphate buffer pH 7: 100 mM phosphate buffer pH 7.0; for Solubility, Phosphate buffer pH 7.5: 100 mM phosphate buffer pH7.5
Summary of the method: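 Peptide stock (2 mg/ml) in water acidified to pH 2.5 with HCl was diluted 1:1 into 100 mM acetate (pH 4.0, 5.0), histidine (pH 6.0, 7.0) or phosphate (pH 6.0, 7.0, 7.5) buffer. A280 and A325 were read at about 25°C, n=1. A325 ≤ 0.02 meant solubility ≥ 1 mg/ml.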

[4] = molecular target: T2, human amylin receptor 3 (hAMYR3) consisting of hCTR2 co-expressed with human Receptor Activity Modifying Protein 3 (hRAMP3) (Homo sapiens, UniProt O60896+P30988); test: hAMYR3 assay: induction of cAMP (AlphaScreen cAMP Assay kit) in COS7 cells expressing hAMYR3; type: cell-based; settings: cAMP induction in COS7 cells expressing hAMYR3; average of a minimum of 3 determinations; read-out: hAMY R3 EC50
T2 construct: expressed in transfected cells
T2 sequence (P30988 25-474): T1 sequence (P30988 25-474)
T2 sequence (O60896 24-148 partner): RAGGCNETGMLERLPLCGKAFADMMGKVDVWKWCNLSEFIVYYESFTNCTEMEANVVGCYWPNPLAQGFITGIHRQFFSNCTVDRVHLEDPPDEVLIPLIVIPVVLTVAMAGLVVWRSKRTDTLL
Summary of the method: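 Stable COS7 clone co-expressing hCTR2 and hRAMP3, stimulated 15 min at 37° C with increasing peptide in Tyrode buffer pH 7.4 with 100 µM IBMX and 0.1% casein. cAMP measured by AlphaScreen after lysis; EC50 and % efficacy versus pramlintide from 4PL fit.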

CC[C@H](C)[C@@H](C(=O)N[C@@H](CC(C)C)C(=O)N[C@@H](CO)C(=O)N[C@@H](CO)C(=O)N[C@H](C(=O)N[C@@H](CC(N)=O)C(=O)N[C@H](C(=O)NCC(=O)N[C@@H](CO)C(=O)N[C@@H](CC(N)=O)C(=O)N[C@H](C(=O)N1CCC[C@H]1C(N)=O)[C@@H](C)O)C(C)C)[C@@H](C)O)N(C)C(=O)CN(C)C(=O)[C@H](Cc1ccccc1)NC(=O)[C@H](CC(N)=O)NC(=O)[C@H](CC(N)=O)NC(=O)[C@H](CO)NC(=O)[C@H](CO)NC(=O)[C@H](Cc1c[nH]cn1)NC(=O)[C@H](Cc1c[nH]cn1)NC(=O)[C@H](CC(C)C)NC(=O)[C@H](Cc1ccccc1)NC(=O)[C@H](CCC(=O)O)NC(=O)[C@H](C)NC(=O)[C@H](CC(C)C)NC(=O)[C@H](CCCNC(=N)N)NC(=O)[C@H](CCC(N)=O)NC(=O)[C@@H](NC(=O)[C@H](C)NC(=O)[C@@H]1CSSC[C@H](NC(=O)[C@H](CCCNC(=N)N)NC(=O)CC[C@H](NC(=O)CCCCCCCCCCCCCCCCCCC(=O)O)C(=O)O)C(=O)N[C@@H](CC(N)=O)C(=O)N[C@@H]([C@@H](C)O)C(=O)N[C@@H](C)C(=O)N[C@@H]([C@@H](C)O)C(=O)N1)[C@@H](C)O [Compound 2, [19CD]-isoGlu-RC()NTATC()ATQRLAEFLHHSSNNF-Gly(Me)-Ile(Me)-LSSTNVGSNTP-NH2] ({C20 diacid-γGlu}-RCNTATCATQRLAEFLHHSSNNF[Sar][NMeI]LSSTNVGSNTP-NH2; disulfide 2-7)
Fibrillation lag time (hours) pH 4.0 (Ac) [1]: FND^&& | Fibrillation lag time (hours) pH 7.0 (Ph) [1]: FND^&& | EC50 [2]: 160 pM | Solubility, Acetate buffer pH 4 [3]: SS (SS indicates solubility ≥ 1mg/ml) | Solubility, Acetate buffer pH 5 [3]: SS (SS indicates solubility ≥ 1mg/ml) | Solubility, Histidine buffer pH 6 [3]: SS (SS indicates solubility ≥ 1mg/ml) | Solubility, Histidine buffer pH 7 [3]: SS (SS indicates solubility ≥ 1mg/ml) | Solubility, Phosphate buffer pH 6 [3]: SS (SS indicates solubility ≥ 1mg/ml) | Solubility, Phosphate buffer pH 7 [3]: SS (SS indicates solubility ≥ 1mg/ml) | Solubility, Phosphate buffer pH 7.5 [3]: II (II indicates solubility ≤ 1 mg/ml) | EC50 [4]: 260 pM

CC[C@H](C)[C@@H](C(=O)N[C@@H](CC(C)C)C(=O)N[C@@H](CO)C(=O)N[C@@H](CO)C(=O)N[C@H](C(=O)N[C@@H](CC(N)=O)C(=O)N[C@H](C(=O)NCC(=O)N[C@@H](CO)C(=O)N[C@@H](Cc1c[nH]cn1)C(=O)N[C@H](C(=O)N[C@@H](Cc1ccc(O)cc1)C(N)=O)[C@@H](C)O)C(C)C)[C@@H](C)O)N(C)C(=O)[C@H](C)NC(=O)CN(C)C(=O)[C@H](Cc1ccccc1)NC(=O)[C@H](CC(N)=O)NC(=O)[C@H](CC(N)=O)NC(=O)[C@H](CO)NC(=O)[C@H](CO)NC(=O)[C@H](Cc1c[nH]cn1)NC(=O)[C@H](Cc1c[nH]cn1)NC(=O)[C@H](CC(C)C)NC(=O)[C@H](Cc1ccccc1)NC(=O)[C@H](CCC(=O)O)NC(=O)[C@H](C)NC(=O)[C@H](CC(C)C)NC(=O)[C@H](CCCNC(=N)N)NC(=O)[C@H](CCC(N)=O)NC(=O)[C@@H](NC(=O)[C@H](C)NC(=O)[C@@H]1CSSC[C@H](NC(=O)[C@H](CCCCN)NC(=O)CC[C@H](NC(=O)CCCCCCCCCCCCCCCCCCC(=O)O)C(=O)O)C(=O)N[C@@H](CC(N)=O)C(=O)N[C@@H]([C@@H](C)O)C(=O)N[C@@H](C)C(=O)N[C@@H]([C@@H](C)O)C(=O)N1)[C@@H](C)O [Compound 3, [19CD]-isoGlu-KC()NTATC()ATQRLAEFLHHSSNNF-Gly(Me)-A-Ile(Me)-LSSTNVGSHTY-NH2] ({C20 diacid-γGlu}-KCNTATCATQRLAEFLHHSSNNF[Sar]A[NMeI]LSSTNVGSHTY-NH2; disulfide 2-7)
Fibrillation lag time (hours) pH 4.0 (Ac) [1]: FND | Fibrillation lag time (hours) pH 7.0 (His) ([1]; 50 mM histidine buffer pH 7.0, 96 hours at 40°C): FND | Fibrillation lag time (hours) pH 7.0 (Ph) [1]: FND | EC50 [2]: 1300 pM | Solubility, Acetate buffer pH 4 [3]: SS (SS indicates solubility ≥ 1mg/ml) | Solubility, Acetate buffer pH 5 [3]: SS (SS indicates solubility ≥ 1mg/ml) | Solubility, Histidine buffer pH 6 [3]: SS (SS indicates solubility ≥ 1mg/ml) | Solubility, Histidine buffer pH 7 [3]: II** (II indicates solubility ≤ 1 mg/ml) | Solubility, Phosphate buffer pH 6 [3]: SS (SS indicates solubility ≥ 1mg/ml) | Solubility, Phosphate buffer pH 7 [3]: II (II indicates solubility ≤ 1 mg/ml) | Solubility, Phosphate buffer pH 7.5 [3]: II (II indicates solubility ≤ 1 mg/ml)

CC[C@H](C)[C@H](NC(=O)[C@@H]1CCCN1C(=O)CNC(=O)[C@H](Cc1ccccc1)NC(=O)[C@H](CC(N)=O)NC(=O)[C@H](CC(N)=O)NC(=O)[C@H](CO)NC(=O)[C@H](CO)NC(=O)[C@H](Cc1c[nH]cn1)NC(=O)[C@@H](NC(=O)[C@H](CC(C)C)NC(=O)[C@H](Cc1ccccc1)NC(=O)[C@H](CC(N)=O)NC(=O)[C@H](C)NC(=O)[C@H](CC(C)C)NC(=O)[C@H](CCCNC(=N)N)NC(=O)[C@H](CCC(N)=O)NC(=O)[C@@H](NC(=O)[C@H](C)NC(=O)[C@@H]1CSSC[C@H](NC(=O)[C@@H](N)CCCCN)C(=O)N[C@@H](CC(N)=O)C(=O)N[C@@H]([C@@H](C)O)C(=O)N[C@@H](C)C(=O)N[C@@H]([C@@H](C)O)C(=O)N1)[C@@H](C)O)C(C)C)C(=O)N[C@@H](CC(C)C)C(=O)N1CCC[C@H]1C(=O)N1CCC[C@H]1C(=O)N[C@H](C(=O)N[C@@H](CC(N)=O)C(=O)N[C@H](C(=O)NCC(=O)N[C@@H](CO)C(=O)N[C@@H](CC(N)=O)C(=O)N[C@H](C(=O)N[C@@H](Cc1ccc(O)cc1)C(N)=O)[C@@H](C)O)C(C)C)[C@@H](C)O [pramlin tide]
Fibrillation lag time (hours) pH 4.0 (Ac) [1]: 48 hours | Fibrillation lag time (hours) pH 7.0 (Ph) [1]: 2 hours
